Tested on: w.1 AMATA Amaranthus tamariscinus, common waterhemp, sensitive biotype
Test: Greenhouse experiment, weed control of w.1 (Example 3)
Format: in vivo
Conditions: for Weed control (%) w.1: greenhouse, sensitive biotype

Structure (SMILES): C#CCN1C(=O)C(F)(F)Oc2cc(F)c(-n3c(=O)n(C)c(=S)n(C)c3=O)cc21 [I.a.35]
- activity in words on sensitive weed w.1 (summary of Example 3 table): very good activity
- Weed control (%) w.1 (use rate 2 g/ha): 99%
- Weed control (%) w.1 (use rate 4 g/ha): 100%
